Assay results from patent US10392389B2, “Heterocyclic compounds for the inhibition of PASK” (BioEnergenix, LLC, priority 2012, dated 2019).

How the values were obtained:
[1] = In vivo pharmacokinetics in the Sprague Dawley rat; conditions: formulation as in Table 5
Protocol: Pharmacokinetics of a PASK Inhibitor
The in vivo pharmacokinetics of Examples 12, 17, 43, and 51 were evaluated in the Sprague Dawley rat. Blood samples were collected at 0.083, 0.25, 0.5, 1, 2, 4, 6, 8, and 24 hours and the samples were analyzed for test compounds content using LC/MS/MS. The data was submitted to pharmacokinetic analysis using WinNonLin software and the observed and calculated pharmacokinetic parameters are shown in Table 5 for each compound.

PASK (Invitrogen) = target: T1, PASK (Invitrogen) (Homo sapiens, UniProt Q96RG2); test: PAS Kinase FRET Assay; format: biochemical; conditions: PAS kinase TR-FRET assay (665 nm/615 nm); read-out: IC50 Kinase Domain
T1 construct: IC50 Kinase Domain; purchased Invitrogen
T1 sequence (Q96RG2 999-1251 limits assumed): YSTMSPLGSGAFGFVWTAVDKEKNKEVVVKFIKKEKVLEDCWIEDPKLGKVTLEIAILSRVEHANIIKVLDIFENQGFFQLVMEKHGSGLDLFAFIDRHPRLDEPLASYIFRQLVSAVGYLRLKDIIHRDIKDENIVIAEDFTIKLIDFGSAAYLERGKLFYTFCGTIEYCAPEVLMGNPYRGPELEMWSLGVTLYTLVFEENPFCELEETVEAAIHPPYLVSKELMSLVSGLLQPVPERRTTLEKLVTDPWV
Procedure, shortened: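 PASK phosphorylates a ULight-peptide with ATP in 50 mM HEPES, 10 mM MgCl2, 1 mM EGTA, 0.01% Tween-20, 2 mM DTT for 2 h at 25° C in the dark. Compounds are added as 4× serial dilutions (top 12×10^−5 M at 4×). After stopping, an Eu anti-phospho-substrate antibody is added for 1 h and TR-FRET is read at 665/615 nm.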

[2] = target: T2, CK2a2 (NP_001887; human full-length protein, GST tagged) (Homo sapiens, UniProt P19784); test: Biochemical Assay for CK2 Activity; conditions: 33P-ATP radiochemical assay, CK2 sub [RRRDDDSDDD]
T2 construct: human full-length protein, GST tagged; GST; host or cells: insect cells
T2 sequence (P19784 whole entry): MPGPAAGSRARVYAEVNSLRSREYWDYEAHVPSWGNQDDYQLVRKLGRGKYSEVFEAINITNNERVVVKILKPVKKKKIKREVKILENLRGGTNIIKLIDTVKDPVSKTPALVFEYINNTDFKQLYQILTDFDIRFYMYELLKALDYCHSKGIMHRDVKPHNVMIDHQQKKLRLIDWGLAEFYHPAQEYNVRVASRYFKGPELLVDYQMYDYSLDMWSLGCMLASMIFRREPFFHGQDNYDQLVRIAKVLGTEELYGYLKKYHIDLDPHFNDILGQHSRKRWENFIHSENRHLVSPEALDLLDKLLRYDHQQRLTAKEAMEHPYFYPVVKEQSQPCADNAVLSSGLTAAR
Protocol: Biochemical Assay for CK2 Activity
(§1) Purified CK2a2 (NP_001887; human full-length protein, GST tagged) from insect cells (final concentration 1.2 nM) is added to freshly prepared Base Reaction Buffer containing 20 mM Hepes (pH 7.5), 10 mM MgCl2, 1 mM EGTA, 0.02% Brij35, 0.02 mg/ml BSA, 0.1 mM Na3VO4, 2 mM DTT, 1% DMSO and CK2 sub [RRRDDDSDDD] (20 μM final). Test compounds in DMSO are then added and the mixture, followed by delivery of ^33P-ATP (specific activity 0.01 μCi/μl final) to initiate the reaction. The kinase reaction is incubated for 120 min at room temperature. The entire reaction mixture is washed through onto a P81 Phosphocellulose paper and washed three times for 10 minutes in 75 mM phosphoric acid and once in methanol prior to drying and scintillation counting.

[3] = target: T3, PIM1 (NP_002639; human full-length protein, 6×His tagged) (Homo sapiens, UniProt P11309); test: Biochemical Assay for PIM1 Activity; conditions: 33P-ATP radiochemical assay, S6K/Rsk2 peptide 2 substrate
T3 construct: human full-length protein, 6×His tagged; 6xHis; host or cells: insect cells
T3 sequence (P11309 whole entry): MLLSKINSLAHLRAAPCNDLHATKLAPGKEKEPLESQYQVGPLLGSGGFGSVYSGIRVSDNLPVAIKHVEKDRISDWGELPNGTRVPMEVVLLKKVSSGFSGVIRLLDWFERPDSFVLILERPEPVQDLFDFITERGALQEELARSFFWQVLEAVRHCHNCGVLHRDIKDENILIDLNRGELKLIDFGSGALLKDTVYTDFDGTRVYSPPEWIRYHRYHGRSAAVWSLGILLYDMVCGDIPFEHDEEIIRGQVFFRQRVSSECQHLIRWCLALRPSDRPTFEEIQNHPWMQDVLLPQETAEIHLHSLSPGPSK
Protocol: Biochemical Assay for PIM1 Activity
as §1, with “PIM1 (NP_002639;” for “CK2a2 (NP_001887;”, “6×His” for “GST”, “1.0” for “1.2”, “substrate S6K/Rsk2 peptide 2 [KKRNRTLTK]” for “CK2 sub [RRRDDDSDDD]”, “10” for “0.01”

PASK = target: T4, PASK (UniProt #Q96RG2; human recombinant N-terminal GST tagged construct, residues 879-1323) (Homo sapiens, UniProt Q96RG2); test: PASK ATP Radiochemical Assay; format: biochemical; conditions: 33P-ATP, Myelin Basic Protein substrate, read-out: IC50 Kinase Domain
T4 construct: N-terminal GST tagged construct, residues 879-1323; GST (N); host or cells: insect cells
T4 sequence (Q96RG2 879-1323, stated change not applied): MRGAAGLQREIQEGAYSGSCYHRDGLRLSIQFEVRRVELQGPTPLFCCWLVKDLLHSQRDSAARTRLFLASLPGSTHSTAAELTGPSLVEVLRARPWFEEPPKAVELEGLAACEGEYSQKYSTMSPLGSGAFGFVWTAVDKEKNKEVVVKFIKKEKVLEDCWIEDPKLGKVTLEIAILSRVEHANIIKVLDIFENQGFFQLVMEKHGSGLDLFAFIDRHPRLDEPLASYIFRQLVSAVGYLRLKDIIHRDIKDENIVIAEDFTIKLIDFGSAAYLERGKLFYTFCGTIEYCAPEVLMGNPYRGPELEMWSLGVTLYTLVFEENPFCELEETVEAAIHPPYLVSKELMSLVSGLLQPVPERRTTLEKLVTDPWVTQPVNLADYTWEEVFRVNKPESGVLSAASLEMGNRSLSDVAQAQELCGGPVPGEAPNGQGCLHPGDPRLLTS
Protocol: Biochemical Assay for hPASK Activity
PASK ATP Radiochemical Assay
as §1, with “PASK (UniProt #Q96RG2;” for “CK2a2 (NP_001887;”, “recombinant N-terminal” for “full-length protein,”, “tagged construct, residues 879-1323)” for “tagged)”, “5” for “1.2”, “HEPES” for “Hepes”, “Myelin Basic Protein” for “CK2 sub [RRRDDDSDDD]”

SMILES	Cl (clearance) ([1]; IV, 3 mg/kg)	Vss (volume of distribution) ([1]; IV, 3 mg/kg)	t1/2 (half-life) ([1]; IV, 3 mg/kg)	F (oral bioavailability) ([1]; PO, 10 mg/kg)	Tmax (Time to maximum blood concentration after an oral dose) ([1]; PO, 10 mg/kg)	t1/2 (half-life) ([1]; PO, 10 mg/kg)	IC50 (PASK (Invitrogen))	IC50 [2]	IC50 [3]	IC50 (PASK)
COc1cc(-c2cc(=O)n3ncc(-c4ccnn4C)c3[nH]2)ccc1Cl [Example 51, 5-(4-chloro-3-methoxyphenyl)-3-(1-methyl-1H-pyrazol-5-yl)pyrazolo[1,5-a]pyrimidin-7(4H)-one]	62 mL/min/kg	0.71 L/kg	0.38 h	1.17%	15 min	2.62 h	≤ 10 µM			
CCn1ncc2cc(-c3cc(=O)n4ncc(-c5ncc(C)o5)c4[nH]3)ccc21 [Example 12, 5-(1-ethyl-1H-indazol-5-yl)-3-(5-methyl-1,3-oxazol-2-yl)-4H,7H-pyrazolo[1,5-a]pyrimidin-7-one]	8.76 mL/min/kg	0.35 L/kg	3.75 h	46.5%	30 min	2.38 h	≤ 10 µM			
Cn1ccc(-c2cnn3c(=O)cc(-c4ccc5c(cnn5C)c4)[nH]c23)n1 [Example 83, 5-(1-methyl-1H-indazol-5-yl)-3-(1-methyl-1H-pyrazol-3-yl)pyrazolo[1,5-a]pyrimidin-7(4H)-one]							≤ 10 µM	≤ 10 µM	≤ 10 µM	≤ 10 µM
CCn1ncc2cc(-c3cc(=O)n4ncc(-c5n[nH]cc5C)c4[nH]3)ccc21 [Example 84, 5-(1-ethyl-1H-indazol-5-yl)-3-(4-methyl-1H-pyrazol-3-yl)-4H,7H-pyrazolo[1,5-a]pyrimidin-7-one]							≤ 10 µM	≤ 10 µM	≤ 10 µM	≤ 10 µM
Cc1csc(-c2cnn3c(=O)cc(-c4ccc(Cl)cc4)[nH]c23)n1 [Example 58, 5-(4-chlorophenyl)-3-(4-methylthiazol-2-yl)pyrazolo[1,5-a]pyrimidin-7(4H)-one]							≤ 10 µM	≤ 10 µM	≤ 10 µM	≤ 10 µM
CCn1ncc2cc(-c3cc(=O)n4ncc(-c5ncco5)c4[nH]3)ccc21 [Example 20, 5-(1-Ethyl-1H-indazol-5-yl)-3-(1,3-oxazol-2-yl)-4H,7H-pyrazolo[1,5-a]pyrimidin-7-one]							≤ 10 µM	≤ 10 µM	≤ 10 µM	≤ 10 µM
CCn1ncc2cc(-c3cc(=O)n4ncc(-c5nc(C)no5)c4[nH]3)ccc21 [Example 43, 5-(1-ethyl-1H-indazol-5-yl)-3-(3-methyl-1,2,4-oxadiazol-5-yl)-4H,7H-pyrazolo[1,5-a]pyrimidin-7-one]	23.9 mL/min/kg	0.719 L/kg	1.62 h	44.7%	30 min	3.35 h	≤ 10 µM			
O=c1cc(-c2ccc(Cl)cc2)[nH]c2c(-c3nccs3)cnn12 [Example 57, 5-(4-chlorophenyl)-3-(thiazol-2-yl)pyrazolo[1,5-a]pyrimidin-7(4H)-one]							≤ 10 µM	≤ 10 µM	≤ 10 µM	≤ 10 µM
CCn1ncc2cc(-c3cc(=O)n4ncc(-c5cc[nH]n5)c4[nH]3)ccc21 [Example 55, 5-(1-ethyl-1H-indazol-5-yl)-3-(1H-pyrazol-3-yl)pyrazolo[1,5-a]pyrimidin-7(4H)-one]							≤ 10 µM	≤ 10 µM	≤ 10 µM	≤ 10 µM
Cc1cnc(-c2cnn3c(=O)cc(-c4ccc5onc(C)c5c4)[nH]c23)o1 [Example 91, 5-(3-methylbenzo[d]isoxazol-5-yl)-3-(5-methyloxazol-2-yl)pyrazolo[1,5-a]pyrimidin-7(4H)-one]							≤ 10 µM	≤ 10 µM	≤ 10 µM	≤ 10 µM
CCn1nccc1-c1cnn2c(=O)cc(-c3ccc4c(cnn4C)c3)[nH]c12 [Example 93, 3-(1-ethyl-1H-pyrazol-5-yl)-5-(1-methyl-1H-indazol-5-yl)pyrazolo[1,5-a]pyrimidin-7(4H)-one]							≤ 10 µM	≤ 10 µM	≤ 10 µM	≤ 10 µM
CCOc1cc(-c2cc(=O)n3ncc(-c4nc(C)co4)c3[nH]2)ccc1Cl [Example 21, 5-(4-chloro-3-ethoxyphenyl)-3-(4-methyl-1,3-oxazol-2-yl)-4H,7H-pyrazolo[1,5-a]pyrimidin-7-one]							≤ 10 µM	> 10 µM	≤ 10 µM	≤ 10 µM

More lines, now with the values ahead:

Cl (clearance) ([1]; IV, 3 mg/kg)	Vss (volume of distribution) ([1]; IV, 3 mg/kg)	t1/2 (half-life) ([1]; IV, 3 mg/kg)	F (oral bioavailability) ([1]; PO, 10 mg/kg)	Tmax (Time to maximum blood concentration after an oral dose) ([1]; PO, 10 mg/kg)	t1/2 (half-life) ([1]; PO, 10 mg/kg)	IC50 (PASK (Invitrogen))	IC50 [2]	IC50 [3]	IC50 (PASK)	SMILES
						≤ 10 µM	≤ 10 µM	≤ 10 µM	≤ 10 µM	COc1cc(-c2cc(=O)n3ncc(-c4ccn(C)n4)c3[nH]2)ccc1Cl [Example 54, 5-(4-chloro-3-methoxyphenyl)-3-(1-methyl-1H-pyrazol-3-yl)pyrazolo[1,5-a]pyrimidin-7(4H)-one]
						≤ 10 µM	≤ 10 µM	≤ 10 µM	≤ 10 µM	Cn1nccc1-c1cnn2c(=O)cc(-c3ccc(Cl)c(Cl)c3)[nH]c12 [Example 98, 5-(3,4-dichlorophenyl)-3-(1-methyl-1H-pyrazol-5-yl)pyrazolo[1,5-a]pyrimidin-7(4H)-one]
						≤ 10 µM	≤ 10 µM	≤ 10 µM	≤ 10 µM	CCn1nccc1-c1cnn2c(=O)cc(-c3ccc4c(cnn4CC)c3)[nH]c12 [Example 67, 5-(1-ethyl-1H-indazol-5-yl)-3-(1-ethyl-1H-pyrazol-5-yl)pyrazolo[1,5-a]pyrimidin-7(4H)-one]
						≤ 10 µM	≤ 10 µM	≤ 10 µM	≤ 10 µM	Cc1noc(-c2cnn3c(=O)cc(-c4ccc5c(cnn5C)c4)[nH]c23)n1 [Example 74, 3-(3-methyl-1,2,4-oxadiazol-5-yl)-5-(1-methyl-1H-indazol-5-yl)-4H,7H-pyrazolo[1,5-a]pyrimidin-7-one]
						≤ 10 µM	≤ 10 µM	≤ 10 µM	≤ 10 µM	CCn1nccc1-c1cnn2c(=O)cc(-c3ccc(Cl)c(OCC(F)(F)F)c3)[nH]c12 [Example 94, 5-(4-chloro-3-(2,2,2-trifluoroethoxy)phenyl)-3-(1-ethyl-1H-pyrazol-5-yl)pyrazolo[1,5-a]pyrimidin-7(4H)-one]
						≤ 10 µM	≤ 10 µM	≤ 10 µM	≤ 10 µM	Cn1ncc2cc(-c3cc(=O)n4ncc(-c5cc[nH]n5)c4[nH]3)ccc21 [Example 71, 5-(1-methyl-1H-indazol-5-yl)-3-(1H-pyrazol-3-yl)-4H,7H-pyrazolo[1,5-a]pyrimidin-7-one]
